Data published in PubChem BioAssay (NCI).
Several values for one entry are separate records, joined by “and”; a condition that tells them apart may be missing. Equal entries are not always repeated.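 Briefly, cells in 96-well plates were exposed to five compound concentrations for 48 h, and endpoints were estimated by linear interpolation. GI50 is the concentration that inhibits growth by half. TGI marks complete inhibition of growth.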

Key:
Test in all cases: NCI tumour cell line growth inhibition, 48 h
[1] = system: COLO 205 colon
[2] = system: HCC-2998 colon
[3] = system: HCT-116 colon
[4] = system: HT29 colon
[5] = system: K-562 leukemia
[6] = system: NCI-H522 lung
[7] = system: RXF 393 renal
[8] = system: SF-295 CNS
[9] = system: SK-MEL-28 melanoma
[10] = system: MDA-MB-231 breast

| Compound | TGI [1] [µM] | TGI [2] [µM] | TGI [3] [µM] | TGI [4] [µM] | TGI [5] [µM] | TGI [6] [µM] | TGI [7] | TGI [8] [µM] | TGI [9] [µM] | GI50 [2] [µM] | GI50 [3] [µM] | GI50 [4] [µM] | GI50 [5] [µM] | GI50 [6] [µM] | GI50 [8] [µM] | GI50 [9] [µM] | GI50 [1] [µM] | GI50 [7] [µM] | GI50 [10] [µM] | TGI [10] [µM] |
| --- | --- | --- | --- | --- | --- | --- | --- | --- | --- | --- | --- | --- | --- | --- | --- | --- | --- | --- | --- | --- |
| Cc1c(NC(=O)C(=O)N=NC(=O)c2ccncc2)c(O)c2ccccc2c1O | 32.3 | 30.7 | 30.1 | 44.9 | > 82 | 26.2 | 32.6 µM | 23.3 | 31.7 |  |  |  |  |  |  |  |  |  |  |  |
| O=C1C2=C(c3ccccc31)C(c1cccc(Cl)c1)NC(=S)N2 (stereo not given) | > 100 | > 100 | > 100 | > 100 | > 100 | > 100 |  | > 100 | > 100 |  |  |  |  |  |  |  |  |  |  |  |
| N[C@H]1C2C3CC4C5CC(C42)C1(c1ccccc1)C53 (stereo not given in full) | > 100 | > 100 | > 100 | > 100 | > 100 | > 100 | > 100 µM | > 100 | > 100 |  |  |  |  |  |  |  |  |  |  |  |
| O=[N+]([O-])c1ccc(-c2ccc(/C=N/n3c(-c4ccc(Cl)cc4)n[nH]c3=S)o2)cc1 | > 75.5 | > 100 | 43.6 | > 55.2 | > 31.6 | > 100 |  | > 64 | 34 |  |  |  |  |  |  |  |  |  |  |  |
| Cn1nc(-c2ccccc2NC(=O)C(F)(F)F)c(=O)n(C)c1=S |  | > 100 | > 100 | 53.8 | 66.8 | 49.2 | > 100 µM | > 100 | 30.1 |  |  |  |  |  |  |  |  |  |  |  |
| CCCCCCC(=O)C/C(CCC(=O)N(Cc1ccccc1)Cc1ccccc1)=N\Nc1ccc([N+](=O)[O-])cc1[N+](=O)[O-] | > 100 | > 100 | > 100 | > 100 | 58.2 | > 100 | > 100 µM | > 100 | > 100 |  |  |  |  |  |  |  |  |  |  |  |
| CC1=COC(=O)c2ccccc2N1 | > 100 | > 100 | > 100 | > 100 | > 100 | > 100 | > 100 µM | > 100 | > 100 |  |  |  |  |  |  |  |  |  |  |  |
| CCOP(=O)(OCC)C1C(=O)O[C@H]2CCCC[C@@H]12 (stereo not given in full) | > 100 | > 100 | > 100 | > 100 | > 100 |  | > 100 µM | > 100 | > 100 |  |  |  |  |  |  |  |  |  |  |  |
| C/C(=N\N(C)C)c1sc(-n2nc(-c3ccccc3)cc2-c2ccccc2)nc1C | > 100 | > 100 | > 100 | > 100 | > 100 | > 100 | > 100 µM | > 100 | > 100 |  |  |  |  |  |  |  |  |  |  |  |
| CC(=O)[CH-]C(=O)c1ccccc1.CC(=O)[CH-]C(=O)c1ccccc1.CCN(CC)CC[O-].CCN(CC)CC[O-].Cl.[Ti+4] |  | 76.6 | > 100 | 59.6 | > 100 | 43 |  | 86.7 | 92.6 | 23.1 | 27.2 | 24 | 37.8 | 17.1 | 37.9 | 32.9 |  |  |  |  |
| CCOC(=O)/N=c1\ss/c(=N\C(=S)N(C)C)n1-c1ccccc1 | > 100 | > 100 | > 100 | > 100 | > 100 |  | 7.13 µM and 44.2 µM | > 100 | > 100 | > 100 | > 100 |  |  | 0.401 |  | 28.7 | > 100 | 15.3 |  |  |
| CC(=O)Oc1c(C)n(CCCl)ccc1=O | > 100 |  | > 100 | > 100 | > 100 | > 100 | > 100 µM | > 100 | > 100 |  |  |  |  |  |  |  |  |  |  |  |
| C=C(c1ccccc1N)[C@@]1(O)C[C@H](/C(=C\C)CO)C[C@@H]1NCc1ccccc1 | 33 | 30.9 | 28.7 | 32.7 | 39.5 | 33.4 | 49.3 µM | 30.5 | 33 |  |  |  |  |  |  |  |  |  |  |  |
| COc1cc2cc(Oc3ccc(NC(=O)Nc4cccc(C(F)(F)F)c4)cc3)c(C)nc2cc1OCCN1CCCCC1 |  |  |  |  | 3.11 | 3.33 |  | 3.24 | 3.14 |  |  |  | 0.802 | 1.67 | 1.8 | 1.76 |  |  | 1.36 | 2.73 |
| CC(Cl)(/C=C/Cl)C(Cl)/C=C/C(Cl)(CCl)CBr (stereo not given) | 4.94 | 33.2 | 3.39 | 4.66 | 14.2 | 3.33 | 2.92 µM | 20.2 | 8.27 |  |  |  |  |  |  |  |  |  |  |  |
| O/N=C1/C(=C/c2ccc(F)cc2)CCCC1C(NO)c1ccc(F)cc1 (stereo not given) | > 100 | > 100 | > 100 | 45.2 | > 100 | 42.5 | 86.6 µM | > 100 | > 100 |  |  |  |  |  |  |  |  |  |  |  |
| COC1C=C(Nc2cccc(Cl)c2)C(=O)C1 (stereo not given) | 22.1 | > 100 | > 100 | > 100 | > 100 | > 100 | 92.9 µM | > 100 | > 100 |  |  |  |  |  |  |  |  |  |  |  |

| Compound | TGI [1] [µM] | TGI [2] [µM] | TGI [3] [µM] | TGI [4] [µM] | TGI [5] [µM] | TGI [6] [µM] | TGI [7] | TGI [8] [µM] | TGI [9] [µM] | GI50 [2] [µM] | GI50 [3] [µM] | GI50 [4] [µM] | GI50 [5] [µM] | GI50 [6] [µM] | GI50 [8] [µM] | GI50 [9] [µM] | GI50 [1] [µM] | GI50 [7] [µM] | GI50 [10] [µM] | TGI [10] [µM] |
| --- | --- | --- | --- | --- | --- | --- | --- | --- | --- | --- | --- | --- | --- | --- | --- | --- | --- | --- | --- | --- |
| CCOC(=O)/C(C1=N[C@H](C(=O)OCC)CS1)=C(\C)O | > 100 | > 100 | > 100 | > 100 | > 100 | > 100 | > 100 µM | > 100 | > 100 |  |  |  |  |  |  |  |  |  |  |  |
| CC(C)=CC(=O)CC(=O)C(=O)Nc1ccc(C)c(C)c1 |  |  | > 100 | > 100 | > 100 | > 100 |  | > 100 | > 100 |  |  |  |  |  |  |  |  |  |  |  |
| O=C1C2=C(c3ccccc31)C(c1ccc(Cl)cc1)N1C(=O)CCSC1=N2 (stereo not given) | > 100 | > 100 | > 100 | > 100 | > 100 | > 100 |  | > 100 | > 100 |  |  |  |  |  |  |  |  |  |  |  |
| S=c1[nH]nc(COc2ccc(Cl)cc2)o1 | > 100 | > 100 | > 100 | > 100 | > 100 | > 100 |  | > 100 | > 100 |  |  |  |  |  |  |  |  |  |  |  |
| COc1ccc(/C=C2/CCCC/C2=N/O)cc1 | > 100 | > 100 | > 100 | > 100 |  | > 100 | > 100 µM | > 100 | > 100 |  |  |  |  |  |  |  |  |  |  |  |
| C1CCC([PH+](C2CCCCC2)C2CCCCC2[PH+](C2CCCCC2)C2CCCCC2)CC1.[Au].[CH-]1CCCCC1C1CCCC[N-]1 (stereo not given) |  |  |  |  | > 100 |  | 1.18 µM | 0.901 | 1.79 |  |  |  | 0.229 |  | 0.256 | 0.434 |  | 0.278 |  |  |
| O=C(Cc1ccccc1)NN1C(=O)C(Cl)C1c1cccc(O)c1 (stereo not given) | 32.9 | 36.8 | 28.9 | 31.1 | 34.7 | 23.2 | 32.3 µM | 40.4 | 34.6 |  |  |  |  |  |  |  |  |  |  |  |
| NNC(=O)/C(=C/c1cccc([N+](=O)[O-])c1)NC(=O)c1ccccc1 | > 100 | > 100 | > 100 | > 100 | > 100 | > 100 | > 100 µM | > 100 | > 100 |  |  |  |  |  |  |  |  |  |  |  |
| COc1cc(C2C(Cl)C(=O)N2n2cnc3ccccc3c2=O)cc(OC)c1OC (stereo not given) | > 100 | > 100 | > 100 | > 100 | > 100 | > 100 | > 100 µM | > 100 | > 100 |  |  |  |  |  |  |  |  |  |  |  |
| NC(N)=NS(=O)(=O)c1ccc(NC(=O)c2cccc3c(Nc4ccc(S(=O)(=O)N=C(N)N)cc4)c4ccc(Cl)cc4nc23)cc1 | > 100 | > 100 | > 100 | > 100 | > 100 | > 100 | > 100 µM | > 100 | > 100 |  |  |  |  |  |  |  |  |  |  |  |
| CCOC(=O)Cc1c(Cc2[nH]c(C(=O)OCc3ccccc3)c(CC(=O)OCC)c2CC(=O)OCC)[nH]c(C(=O)OCc2ccccc2)c1CC(=O)OCC | > 100 |  | > 100 | > 100 | > 100 | > 100 |  | > 100 | > 100 |  |  |  |  |  |  |  |  |  |  |  |
| CCCCN(CCCC)C(=O)C(=O)CC(=O)c1ccc(Br)cc1 | > 100 | > 100 | > 100 | > 100 | > 100 | > 100 |  | > 100 |  |  |  |  |  |  |  |  |  |  |  |  |
| Cc1cc(Br)cc(C)c1NC(=O)C(=O)CC(=O)c1sc(-n2nc(-c3ccccc3)cc2-c2ccccc2)nc1C | > 100 | > 100 | > 100 | > 100 | > 100 | > 100 | > 100 µM | > 100 | > 100 |  |  |  |  |  |  |  |  |  |  |  |
| CC1=C(C(=O)Nc2ccccc2)C(c2ccc3c(c2)OCO3)C(C(=O)Nc2ccccc2)=C(C)N1 | > 100 | > 100 |  | > 100 | 66 | 73.3 | 50.2 µM | > 100 | > 100 |  |  |  |  |  |  |  |  |  |  |  |
| Cn1ncc2cc3c(Nc4ccc(Cl)cc4)cccc3nc21 | 28.1 | 54.5 |  |  | > 100 |  | 37.6 µM | 35.3 | 35.8 |  |  |  |  |  |  |  |  |  |  |  |
| COc1c(OC(C)=O)ccc(/C=C2\N=C(C)OC2=O)c1[N+](=O)[O-] | > 100 | > 100 | > 100 | > 100 | > 100 | > 100 | > 100 µM | > 100 |  |  |  |  |  |  |  |  |  |  |  |  |
| C/C(=N\NC(=S)Nc1ccc(C(=O)O)cc1)c1ccccn1 | 34.3 | 32.7 | 51.4 | > 100 | > 100 |  | 74.4 µM | > 100 | > 100 |  |  |  |  |  |  |  |  |  |  |  |
